According to ChEMBL document CHEMBL4311992, “Discovery of 3-(((9H-purin-6-yl)amino)methyl)-4,6-dimethylpyridin-2(1H)-one derivatives as novel tubulin polymerization inhibitors for treatment of cancer” (Eur J Med Chem, 2019):
pIC50: −log10 of the molar value. Activity calls are given as the source filed them. The rule behind the calls is not given here.

Experiments:
[1] = biological target: Aurora kinase B (Homo sapiens) (UniProt Q96GD4); assay: Inhibition of recombinant full-length human AURKB assessed as residual activity at 10 uM using AKRRRLSSLRA as substrate measured after 40 mins in presence of [gamma33P]ATP by scintillation counting method
[2] = organism: Mus musculus; assay: Inhibition of recombinant full-length mouse PI3K p110alpha/p65alpha (1 to 571 residues) assessed as residual activity at 10 uM using phosphatidylinositol-4, 5-bisphosphate as substrate measured after 40 mins by HTRF assay
[3] = tested on: HCT-116; assay: Induction of apoptosis in human HCT116 cells assessed as late apoptotic cells at 25 nM measured after 48 hrs by Annexin V-FITC/propidium iodide staining-based flow cytometry (reference value: 3.87%); type: functional
[4] = biological target: Serine/threonine-protein kinase 32A (Homo sapiens) (UniProt Q8WU08); assay: Inhibition of recombinant full-length human STK32A assessed as residual activity at 10 uM using casein as substrate measured after 120 mins in presence of [gamma33P]ATP by scintillation counting method
[5] = biological target: CDK6/cyclin D3 (Homo sapiens) (UniProt P30281+Q00534); assay: Inhibition of recombinant full-length human CDK6/cyclin D3 assessed as residual activity at 10 uM using histone H1 as substrate measured after 40 mins in presence of [gamma33P]ATP by scintillation counting method; type: protein-complex assay
[6] = biological target: High affinity nerve growth factor receptor (Homo sapiens) (UniProt P04629); assay: Inhibition of human TrkA (440 to end residues) using KKKSPGEYVNIEFG as substrate measured after 40 mins in presence of [gamma33P]ATP by scintillation counting method; parameters: scale not given: the % may be the effect or the level left
[7] = biological target: Tyrosine-protein kinase FRK (Homo sapiens) (UniProt P42685); assay: Inhibition of human PTK5 (218 to end residues) using GGEEEEYFELVKKKK as substrate measured after 40 mins in presence of [gamma33P]ATP by scintillation counting method; parameters: scale not given: the % may be the effect or the level left
[8] = biological target: Wee1-like protein kinase (Homo sapiens) (UniProt P30291); assay: Inhibition of human Wee1 (214 to end residues) using LSNLYHQGKFLQTFCGSPLYRRR as substrate measured after 40 mins in presence of [gamma33P]ATP by scintillation counting method; parameters: scale not given: the % may be the effect or the level left
Chain of Wee1-like protein kinase (Homo sapiens) (P30291 whole entry, looked up): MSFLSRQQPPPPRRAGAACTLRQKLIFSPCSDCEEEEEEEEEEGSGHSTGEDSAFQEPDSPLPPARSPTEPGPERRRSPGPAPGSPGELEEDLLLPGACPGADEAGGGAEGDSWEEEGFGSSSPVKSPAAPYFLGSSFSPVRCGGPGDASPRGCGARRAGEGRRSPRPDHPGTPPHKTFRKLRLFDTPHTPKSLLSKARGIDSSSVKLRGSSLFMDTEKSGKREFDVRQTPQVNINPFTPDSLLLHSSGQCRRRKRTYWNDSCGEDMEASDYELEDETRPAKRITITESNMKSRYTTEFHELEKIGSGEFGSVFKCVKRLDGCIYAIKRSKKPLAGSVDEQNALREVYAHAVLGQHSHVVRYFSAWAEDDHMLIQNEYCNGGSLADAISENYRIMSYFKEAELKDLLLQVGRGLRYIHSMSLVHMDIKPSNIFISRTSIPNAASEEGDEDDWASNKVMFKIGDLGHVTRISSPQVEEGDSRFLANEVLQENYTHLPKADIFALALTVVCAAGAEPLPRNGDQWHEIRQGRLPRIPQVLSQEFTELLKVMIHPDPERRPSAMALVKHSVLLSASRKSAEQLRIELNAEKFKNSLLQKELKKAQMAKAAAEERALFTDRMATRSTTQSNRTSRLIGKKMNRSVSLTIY

[9] = tested on: HCT-116; assay: Induction of apoptosis in human HCT116 cells assessed as increase in cleaved caspase3 expression up to 200 nM measured after 48 hrs by Western blot analysis; type: functional, cell-based
[10] = biological target: Serine/threonine-protein kinase 33 (Homo sapiens) (UniProt Q9BYT3); assay: Inhibition of recombinant full-length human STK33 assessed as residual activity at 10 uM using myelin basic protein as substrate measured after 40 mins in presence of [gamma33P]ATP by scintillation counting method
Chain of Serine/threonine-protein kinase 33 (Homo sapiens) (Q9BYT3 whole entry, looked up): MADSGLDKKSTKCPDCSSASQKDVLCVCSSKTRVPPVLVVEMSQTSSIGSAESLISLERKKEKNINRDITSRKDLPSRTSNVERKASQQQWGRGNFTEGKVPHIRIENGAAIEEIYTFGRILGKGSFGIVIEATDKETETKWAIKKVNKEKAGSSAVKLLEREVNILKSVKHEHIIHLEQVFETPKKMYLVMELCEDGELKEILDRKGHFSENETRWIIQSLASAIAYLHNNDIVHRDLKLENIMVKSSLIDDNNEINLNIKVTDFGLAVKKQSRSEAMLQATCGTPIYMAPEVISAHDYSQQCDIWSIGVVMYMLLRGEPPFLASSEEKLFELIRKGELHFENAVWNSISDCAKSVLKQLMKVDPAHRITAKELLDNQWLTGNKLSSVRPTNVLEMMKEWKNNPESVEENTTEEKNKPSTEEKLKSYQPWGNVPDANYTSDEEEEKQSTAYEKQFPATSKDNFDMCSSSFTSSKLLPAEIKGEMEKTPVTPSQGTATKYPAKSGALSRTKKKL

[11] = biological target: Serine/threonine-protein kinase tousled-like 1 (Homo sapiens) (UniProt Q9UKI8); assay: Inhibition of recombinant full-length human TLK1 assessed as residual activity at 10 uM using casein as substrate measured after 40 mins in presence of [gamma33P]ATP by scintillation counting method
Chain of Serine/threonine-protein kinase tousled-like 1 (Homo sapiens) (Q9UKI8 whole entry, the tested form may be a part): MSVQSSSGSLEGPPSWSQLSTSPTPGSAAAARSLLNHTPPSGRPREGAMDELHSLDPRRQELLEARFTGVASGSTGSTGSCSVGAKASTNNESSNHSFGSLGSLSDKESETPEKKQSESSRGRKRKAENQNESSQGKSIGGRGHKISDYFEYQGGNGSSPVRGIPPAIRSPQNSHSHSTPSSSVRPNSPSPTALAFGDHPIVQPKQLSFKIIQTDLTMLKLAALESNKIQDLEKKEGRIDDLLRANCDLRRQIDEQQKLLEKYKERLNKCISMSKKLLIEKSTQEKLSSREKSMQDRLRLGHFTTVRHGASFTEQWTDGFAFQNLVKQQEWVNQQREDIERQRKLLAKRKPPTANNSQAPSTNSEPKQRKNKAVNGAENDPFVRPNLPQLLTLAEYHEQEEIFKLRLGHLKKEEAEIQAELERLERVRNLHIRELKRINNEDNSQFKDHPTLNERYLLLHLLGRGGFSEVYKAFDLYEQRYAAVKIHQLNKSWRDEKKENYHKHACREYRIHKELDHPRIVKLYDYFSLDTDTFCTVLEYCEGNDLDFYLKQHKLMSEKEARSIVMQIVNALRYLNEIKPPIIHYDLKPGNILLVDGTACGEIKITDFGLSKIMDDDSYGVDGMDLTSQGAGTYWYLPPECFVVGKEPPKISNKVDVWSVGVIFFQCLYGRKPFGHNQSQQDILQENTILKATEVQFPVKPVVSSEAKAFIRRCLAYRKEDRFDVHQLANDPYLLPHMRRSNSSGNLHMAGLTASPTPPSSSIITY

[12] = biological target: Myosin light chain kinase, smooth muscle (Homo sapiens) (UniProt Q15746); assay: Inhibition of recombinant human MLCK (1425 to 1771 residues) assessed as residual activity at 10 uM using calmodulin as substrate measured after 40 mins in presence of [gamma33P]ATP by scintillation counting method
[13] = tested on: HCT-116; assay: Induction of cell cycle arrest in human HCT116 cells assessed as accumulation at G2/M phase after 24 hrs by propidium iodide-staining based flow cytometry; type: functional
[14] = tested on: Mast/stem cell growth factor receptor Kit (Homo sapiens), P10721 [D816V]; assay: Inhibition of recombinant human c-Kit D816V mutant (544 to end residues) assessed as residual activity at 10 uM using poly(Glu, Tyr) 4:1 as substrate measured after 40 mins in presence of [gamma33P]ATP by scintillation counting method
[15] = biological target: Serine/threonine-protein kinase D3 (Homo sapiens) (UniProt O94806); assay: Inhibition of recombinant full-length human PKD3 assessed as residual activity at 10 uM using KKLRRTLSVA as substrate measured after 40 mins in presence of [gamma33P]ATP by scintillation counting method
Chain of Serine/threonine-protein kinase D3 (Homo sapiens) (O94806 whole entry): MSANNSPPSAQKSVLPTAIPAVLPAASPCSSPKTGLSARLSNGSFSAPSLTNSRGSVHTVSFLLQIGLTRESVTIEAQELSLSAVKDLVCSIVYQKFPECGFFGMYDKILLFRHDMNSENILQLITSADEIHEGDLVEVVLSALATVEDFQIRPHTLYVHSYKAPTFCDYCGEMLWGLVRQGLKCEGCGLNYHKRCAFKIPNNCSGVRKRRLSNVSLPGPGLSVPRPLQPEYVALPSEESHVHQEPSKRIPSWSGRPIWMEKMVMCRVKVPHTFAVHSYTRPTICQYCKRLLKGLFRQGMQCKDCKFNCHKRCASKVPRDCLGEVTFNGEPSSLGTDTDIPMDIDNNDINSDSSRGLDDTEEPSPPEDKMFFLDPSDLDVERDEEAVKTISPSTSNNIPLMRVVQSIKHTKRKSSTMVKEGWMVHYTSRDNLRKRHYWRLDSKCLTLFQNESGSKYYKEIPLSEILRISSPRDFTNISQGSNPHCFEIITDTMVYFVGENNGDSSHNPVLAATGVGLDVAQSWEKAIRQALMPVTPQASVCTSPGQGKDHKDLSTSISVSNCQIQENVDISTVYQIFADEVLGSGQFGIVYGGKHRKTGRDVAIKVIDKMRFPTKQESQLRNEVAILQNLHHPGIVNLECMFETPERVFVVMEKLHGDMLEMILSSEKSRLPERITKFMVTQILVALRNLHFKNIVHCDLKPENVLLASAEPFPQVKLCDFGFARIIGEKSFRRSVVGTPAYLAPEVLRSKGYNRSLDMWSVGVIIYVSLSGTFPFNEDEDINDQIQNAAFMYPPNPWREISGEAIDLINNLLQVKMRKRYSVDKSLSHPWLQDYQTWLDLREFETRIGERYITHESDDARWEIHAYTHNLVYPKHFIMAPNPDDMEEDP

[16] = tested on: Eukaryotic elongation factor 2 kinase (Homo sapiens), O00418 [H23R]; assay: Inhibition of recombinant human EEF2K H23R mutant (2 to end residues) assessed as residual activity at 10 uM using RKKFGESEKTKTKEFL as substrate measured after 40 mins in presence of [gamma33P]ATP by scintillation counting method
[17] = biological target: Serine/threonine-protein kinase STK11 (Homo sapiens) (UniProt Q15831); assay: Inhibition of recombinant full-length human LKB1 assessed as residual activity at 10 uM using LSNLYHQGKFLQTFCGSPLYRRR as substrate measured after 40 mins in presence of [gamma33P]ATP by scintillation counting method
Chain of Serine/threonine-protein kinase STK11 (Homo sapiens) (Q15831 whole entry): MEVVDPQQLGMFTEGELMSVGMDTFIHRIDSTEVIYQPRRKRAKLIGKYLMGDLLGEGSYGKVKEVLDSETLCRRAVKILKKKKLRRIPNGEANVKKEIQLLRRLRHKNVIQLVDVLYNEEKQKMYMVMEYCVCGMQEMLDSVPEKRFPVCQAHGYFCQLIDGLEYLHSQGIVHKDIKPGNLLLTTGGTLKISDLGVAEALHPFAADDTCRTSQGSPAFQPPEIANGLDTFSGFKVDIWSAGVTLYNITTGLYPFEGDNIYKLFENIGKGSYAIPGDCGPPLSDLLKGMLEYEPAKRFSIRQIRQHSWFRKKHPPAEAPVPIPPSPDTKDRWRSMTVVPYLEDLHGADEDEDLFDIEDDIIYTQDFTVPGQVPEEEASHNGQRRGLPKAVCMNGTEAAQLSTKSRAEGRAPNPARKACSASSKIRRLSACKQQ

[18] = biological target: Serine/threonine-protein kinase Sgk3 (Homo sapiens) (UniProt Q96BR1); assay: Inhibition of human SGK3 (119 to end residues) using GRPRTSSFAEGKK as substrate measured after 40 mins in presence of [gamma33P]ATP by scintillation counting method; parameters: scale not given: the % may be the effect or the level left
Chain of Serine/threonine-protein kinase Sgk3 (Homo sapiens) (Q96BR1 whole entry): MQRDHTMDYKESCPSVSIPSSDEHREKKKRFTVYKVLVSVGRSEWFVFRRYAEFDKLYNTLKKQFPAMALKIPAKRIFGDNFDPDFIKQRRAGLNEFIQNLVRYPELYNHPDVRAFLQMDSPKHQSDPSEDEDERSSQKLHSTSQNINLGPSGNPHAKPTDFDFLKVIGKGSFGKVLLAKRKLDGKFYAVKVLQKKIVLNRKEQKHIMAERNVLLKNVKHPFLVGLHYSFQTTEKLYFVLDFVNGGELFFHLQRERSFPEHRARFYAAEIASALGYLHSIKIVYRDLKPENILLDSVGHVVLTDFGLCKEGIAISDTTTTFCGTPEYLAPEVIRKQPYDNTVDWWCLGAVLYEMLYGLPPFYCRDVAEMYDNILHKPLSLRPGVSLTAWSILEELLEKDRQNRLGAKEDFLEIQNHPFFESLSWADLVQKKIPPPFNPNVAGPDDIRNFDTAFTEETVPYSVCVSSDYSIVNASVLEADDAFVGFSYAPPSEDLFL

[19] = biological target: Serine/threonine-protein kinase Nek11 (Homo sapiens) (UniProt Q8NG66); assay: Inhibition of recombinant full-length human NEK11 assessed as residual activity at 10 uM using myelin basic protein as substrate measured after 40 mins in presence of [gamma33P]ATP by scintillation counting method
[20] = biological target: Receptor-interacting serine/threonine-protein kinase 2 (Homo sapiens) (UniProt O43353); assay: Inhibition of human RIPK2 (1 to 299 residues) using myelin basic protein as substrate measured after 120 mins in presence of [gamma33P]ATP by scintillation counting method; parameters: scale not given: the % may be the effect or the level left
[21] = biological target: Mitogen-activated protein kinase 1 (Homo sapiens) (UniProt P28482); assay: Inhibition of human MAPK2 assessed as residual activity at 10 uM
[22] = biological target: Tyrosine-protein kinase Fer (Homo sapiens) (UniProt P16591); assay: Inhibition of recombinant human FER (541 to end residues) assessed as residual activity at 10 uM using KKKSPGEYVNIEFG as substrate measured after 40 mins in presence of [gamma33P]ATP by scintillation counting method
[23] = biological target: Wee1-like protein kinase 2 (Homo sapiens) (UniProt P0C1S8); assay: Inhibition of recombinant full-length human WEE1b assessed as residual activity at 10 uM using LSNLYHQGKFLQTFCGSPLYRRR as substrate measured after 120 mins in presence of [gamma33P]ATP by scintillation counting method
Chain of Wee1-like protein kinase 2 (Homo sapiens) (P0C1S8 whole entry, looked up): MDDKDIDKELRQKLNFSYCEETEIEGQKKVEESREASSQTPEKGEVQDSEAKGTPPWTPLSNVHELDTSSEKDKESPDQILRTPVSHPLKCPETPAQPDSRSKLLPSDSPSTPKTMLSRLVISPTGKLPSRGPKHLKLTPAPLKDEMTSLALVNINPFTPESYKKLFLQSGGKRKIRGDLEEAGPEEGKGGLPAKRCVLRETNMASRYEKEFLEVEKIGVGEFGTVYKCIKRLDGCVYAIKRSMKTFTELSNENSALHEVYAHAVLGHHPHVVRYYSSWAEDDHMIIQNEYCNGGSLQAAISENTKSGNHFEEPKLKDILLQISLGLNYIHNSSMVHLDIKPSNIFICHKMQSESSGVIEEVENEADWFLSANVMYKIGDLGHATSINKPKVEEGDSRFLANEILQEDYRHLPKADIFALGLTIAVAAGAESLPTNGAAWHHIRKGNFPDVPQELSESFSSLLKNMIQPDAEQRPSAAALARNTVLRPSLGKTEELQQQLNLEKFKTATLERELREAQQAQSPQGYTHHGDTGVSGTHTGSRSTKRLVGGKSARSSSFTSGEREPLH

[24] = tested on: SW-620; assay: Antiproliferative activity against human SW620 cells assessed as reduction in cell viability after 72 hrs by MTT assay; type: functional, cell-based; settings: SW-620, 72 h
[25] = biological target: Serine/threonine-protein kinase PAK 6 (Homo sapiens) (UniProt Q9NQU5); assay: Inhibition of recombinant human PAK6 (382 to end residues) assessed as residual activity at 10 uM using RRRLSFAEPG as substrate measured after 40 mins in presence of [gamma33P]ATP by scintillation counting method
Chain of Serine/threonine-protein kinase PAK 6 (Homo sapiens) (Q9NQU5 whole entry, looked up): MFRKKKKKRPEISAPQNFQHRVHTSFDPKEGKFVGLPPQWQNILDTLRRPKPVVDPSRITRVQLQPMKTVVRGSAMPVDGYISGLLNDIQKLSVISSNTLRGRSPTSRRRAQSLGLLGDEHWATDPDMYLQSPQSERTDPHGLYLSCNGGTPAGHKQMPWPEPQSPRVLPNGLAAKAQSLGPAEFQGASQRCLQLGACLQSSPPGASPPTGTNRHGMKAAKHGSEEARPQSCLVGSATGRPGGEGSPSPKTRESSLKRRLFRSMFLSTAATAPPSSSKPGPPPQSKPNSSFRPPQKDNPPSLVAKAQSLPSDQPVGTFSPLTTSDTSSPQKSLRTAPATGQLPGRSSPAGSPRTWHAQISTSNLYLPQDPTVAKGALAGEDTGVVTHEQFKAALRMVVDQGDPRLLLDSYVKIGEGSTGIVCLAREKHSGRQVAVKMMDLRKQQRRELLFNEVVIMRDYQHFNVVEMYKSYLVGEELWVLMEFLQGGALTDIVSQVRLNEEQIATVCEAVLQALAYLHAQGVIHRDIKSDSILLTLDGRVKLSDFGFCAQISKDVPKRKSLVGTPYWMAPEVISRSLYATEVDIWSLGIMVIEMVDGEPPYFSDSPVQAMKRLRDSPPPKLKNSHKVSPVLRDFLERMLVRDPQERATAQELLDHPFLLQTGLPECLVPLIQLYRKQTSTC

## Cc1cc(C)c(CNc2nc(Cl)nc3c2ncn3C2CCCC2)c(=O)[nH]1
[1]
  Activity: 143%
[2]
  Activity: 104%
[3]
  Activity: 17.1%
[4]
  Activity: 100%
[5]
  Activity: 98.5%
[6]
  Activity: 92%
[7]
  Activity: 102%
[8]
  Activity: 84.5%
[9]
  Activity: Active
[10]
  Activity: 86.5%
[11]
  Activity: 97%
[12]
  Activity: 94%
[13]
  Activity: Dose-dependent effect
[14]
  Activity: 93%
[15]
  Activity: 106%
[16]
  Activity: 104%
[17]
  Activity: 110%
[18]
  Activity: 102%
[19]
  Activity: 102%
[20]
  Activity: 106%
[21]
  Activity: 104%
[22]
  Activity: 108%
[23]
  Activity: 95%
[24]
  pIC50: 7.22
[25]
  Activity: 101%
